Like-named read-outs stand apart in the source and are kept apart here. Bounds are passed on as bounds.

The text below walks through data of patent publication US8343983B2, “Substituted pyrazolo-pyrimidine compounds” (ArQule, Inc., priority 2009, dated 2013).

The test system of this experiment is cancer cells. Description: MTS assay: inhibition of cell growth (formazan absorbance at 492 nm after 72 hours with test compound). Type of experiment: cell-based. The settings on record: inhibition class. In outline:
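DMEM with 1% FBS; cells seeded at 3000/well and grown 18 h at 37 °C, then exposed to compound for 72 h and to MTS/PMS for 4 h. IC50 is the concentration giving a 50% absorbance drop; grades are % inhibition bands.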
Background: Tetrazolium assays rely on reduction of a dye to a coloured formazan, in cell work by metabolically active cells.

[1] abbreviates: Homo sapiens, DLD-1 cells, read-out: DLD-1, MTS 72 hours at 10 uM.
The mark [2] stands for this setting: Homo sapiens, KATO III cells, read-out: KATO III, MTS 72 hours at 10 uM.
[3] abbreviates: Homo sapiens, MDA-MB-231 cells, read-out: MDA-MB-231, MTS 72 hours at 10 uM.
Where [4] appears, read: Homo sapiens, NCI-H1299 cells, read-out: NCI-H1299, MTS 72 hours at 10 uM.
Setting [5] is: Homo sapiens, PC-3 cells, read-out: PC-3, MTS 72 hours at 10 uM.
Where [6] appears, read: PACA-2 cells, read-out: PACA-2, MTS 72 hours at 10 uM.

Take `CC(C)Nc1nc2c3c(n[nH]c3n1)CCN2Cc1ccccc1` [Compound 60, 6-benzyl-N-isopropyl-2,6,7,8-tetrahydro-1,2,3,5,6-pentaazaacenaphthylen-4-amine]: the inhibition at 10 µM reads like this: under setting [1], less than 50%; under setting [2], less than 50%; under setting [3], less than 50%; under setting [4], less than 50%; under setting [5], less than 50%; under setting [6], less than 50%.

Regarding `Fc1cccc(CNc2nc3c4c(n[nH]c4n2)CCN3)c1` [Compound 127, N-(3-fluorobenzyl)-2,6,7,8-tetrahydro-1,2,3,5,6-pentaazaacenaphthylen-4-amine], the inhibition at 10 µM is more than 79% under setting [1]; more than 79% under setting [2]; more than 79% under setting [3]; 50 to 79% under setting [4]; more than 79% under setting [5]; more than 79% under setting [6].

On to `COc1ccc(CN2CCCc3n[nH]c4nc(N5CCN(Cc6ccccc6)CC5)nc2c34)cc1` [Compound 254, 4-(4-benzylpiperazin-1-yl)-6-(4-methoxybenzyl)-6,7,8,9-tetrahydro-2H-1,2,3,5,6-pentaazabenzo[cd]azulene], for which the inhibition at 10 µM runs as follows: under setting [1], more than 79%; under setting [2], more than 79%; under setting [3], more than 79%; under setting [4], more than 79%; under setting [5], more than 79%; under setting [6], more than 79%.

In the case of `Clc1cccc(CCNc2nc3c4c(n[nH]c4n2)CCN3Cc2ccccc2)c1` [Compound 12, 6-benzyl-N-[2-(3-chlorophenyl)ethyl]-2,6,7,8-tetrahydro-1,2,3,5,6-pentaazaacenaphthylen-4-amine], the inhibition at 10 µM runs as follows: under setting [1], 50 to 79%; under setting [2], 50 to 79%; under setting [3], less than 50%; under setting [4], 50 to 79%; under setting [5], less than 50%; under setting [6], less than 50%.

Regarding `CC(=O)NCCNc1nc2c3c(n[nH]c3n1)CCN2Cc1ccccc1` [Compound 68, N-{2-[(6-benzyl-2,6,7,8-tetrahydro-1,2,3,5,6-pentaazaacenaphthylen-4-yl)amino]ethyl}acetamide], the inhibition at 10 µM under setting [1] was less than 50%; the inhibition at 10 µM under setting [2] is less than 50%; the inhibition at 10 µM under setting [3] was less than 50%; the inhibition at 10 µM under setting [4] was less than 50%; the inhibition at 10 µM under setting [5] was less than 50%; the inhibition at 10 µM under setting [6] was less than 50%.

`COc1ccc(CN2CCCc3n[nH]c4nc(NCCc5c[nH]c6ccc(Cl)cc56)nc2c34)cc1` [Compound 252, N-[2-(5-chloro-1H-indol-3-yl)ethyl]-6-(4-methoxybenzyl)-6,7,8,9-tetrahydro-2H-1,2,3,5,6-pentaazabenzo[cd]azulen-4-amine]: the inhibition at 10 µM is 50 to 79% under setting [1]; less than 50% under setting [2]; less than 50% under setting [3]; less than 50% under setting [4]; less than 50% under setting [5]; less than 50% under setting [6].

Turning to `CN(C(=O)C1CN(Cc2ccccc2)c2nc(NCc3ccccc3)nc3[nH]nc1c23)C1CCCCC1` (stereo not drawn) [Compound 239, 6-benzyl-4-(benzylamino)-N-cyclohexyl-N-methyl-2,6,7,8-tetrahydro-1,2,3,5,6-pentaazaacenaphthylene-8-carboxamide], the inhibition at 10 µM by setting is: under setting [1], less than 50%; under setting [2], less than 50%; under setting [3], less than 50%; under setting [4], less than 50%; under setting [5], less than 50%; under setting [6], less than 50%.

For `CN(Cc1cccc2ccccc12)c1nc2c3c(n[nH]c3n1)CCN2Cc1ccccc1` [Compound 6, 6-benzyl-N-methyl-N-(1-naphthylmethyl)-2,6,7,8-tetrahydro-1,2,3,5,6-pentaazaacenaphthylen-4-amine], the inhibition at 10 µM by setting is: under setting [1], less than 50%; under setting [2], less than 50%; under setting [3], less than 50%; under setting [4], less than 50%; under setting [5], less than 50%; under setting [6], less than 50%.

Turning to `COc1cccc(CNc2nc3c4c(n[nH]c4n2)CCN3Cc2ccccc2)c1` [Compound 93, 6-benzyl-N-(3-methoxybenzyl)-2,6,7,8-tetrahydro-1,2,3,5,6-pentaazaacenaphthylen-4-amine], the inhibition at 10 µM by setting is: under setting [1], less than 50%; under setting [2], less than 50%; under setting [3], less than 50%; under setting [4], less than 50%; under setting [5], less than 50%; under setting [6], less than 50%.

Consider `Clc1ccccc1CNc1nc2c3c(n[nH]c3n1)CCN2c1ccccc1` [Compound 209, N-(2-chlorobenzyl)-6-phenyl-2,6,7,8-tetrahydro-1,2,3,5,6-pentaazaacenaphthylen-4-amine], for which the inhibition at 10 µM under setting [1] was less than 50%; the inhibition at 10 µM under setting [2] fell in the range of 50 to 79%; the inhibition at 10 µM under setting [3] was less than 50%; the inhibition at 10 µM under setting [4] is less than 50%; the inhibition at 10 µM under setting [5] is less than 50%; the inhibition at 10 µM under setting [6] is less than 50%.

With `O=C(c1ccco1)N1CCN(c2nc3c4c(n[nH]c4n2)CCN3Cc2ccccc2)CC1` [Compound 53, 6-benzyl-4-[4-(2-furoyl)piperazin-1-yl]-2,6,7,8-tetrahydro-1,2,3,5,6-pentaazaacenaphthylene], the inhibition at 10 µM is less than 50% under setting [1]; less than 50% under setting [2]; 50 to 79% under setting [3]; less than 50% under setting [4]; less than 50% under setting [5]; less than 50% under setting [6].

Consider `c1ccc(CN2CCc3n[nH]c4nc(NCc5ccc6c(c5)CCO6)nc2c34)cc1` [Compound 63, 6-benzyl-N-(2,3-dihydro-1-benzofuran-5-ylmethyl)-2,6,7,8-tetrahydro-1,2,3,5,6-pentaazaacenaphthylen-4-amine], for which the inhibition at 10 µM was less than 50% under setting [1]; less than 50% under setting [2]; less than 50% under setting [3]; less than 50% under setting [4]; less than 50% under setting [5]; less than 50% under setting [6].

For `c1ccc(OCCNc2nc3c4c(n[nH]c4n2)CCN3c2ccccc2)cc1` [Compound 212, N-(4-phenoxyethyl)-6-phenyl-2,6,7,8-tetrahydro-1,2,3,5,6-pentaazaacenaphthylen-4-amine], the inhibition at 10 µM is less than 50% under setting [1]; less than 50% under setting [2]; less than 50% under setting [3]; less than 50% under setting [4]; less than 50% under setting [5]; less than 50% under setting [6].

Consider `c1ccc(CN2CCc3n[nH]c4nc(N5CCN(c6ccccn6)CC5)nc2c34)cc1` [Compound 95, 6-benzyl-4-(4-pyridin-2-ylpiperazin-1-yl)-2,6,7,8-tetrahydro-1,2,3,5,6-pentaazaacenaphthylene], for which the inhibition at 10 µM was less than 50% under setting [1]; less than 50% under setting [2]; less than 50% under setting [3]; less than 50% under setting [4]; less than 50% under setting [5]; less than 50% under setting [6].

`c1ccc(CN2CCc3n[nH]c4nc(N5CCN(Cc6ccncc6)CC5)nc2c34)cc1` [Compound 92, 6-benzyl-4-[4-(pyridin-4-ylmethyl)piperazin-1-yl]-2,6,7,8-tetrahydro-1,2,3,5,6-pentaazaacenaphthylene]: the inhibition at 10 µM reads like this: under setting [1], less than 50%; under setting [2], less than 50%; under setting [3], less than 50%; under setting [4], less than 50%; under setting [5], less than 50%; under setting [6], less than 50%.

Take `COc1ccc(CN2CCc3n[nH]c4nc(SC)nc2c34)cc1` [Compound 99, 6-(4-methoxybenzyl)-4-(methylsulfanyl)-2,6,7,8-tetrahydro-1,2,3,5,6-pentaazaacenaphthylene]: the inhibition at 10 µM reads like this: under setting [1], less than 50%; under setting [2], less than 50%; under setting [3], less than 50%; under setting [4], less than 50%; under setting [5], less than 50%; under setting [6], less than 50%.

For `c1ccc(CN2CCc3n[nH]c4nc(NCC5CCCCCC5)nc2c34)cc1` [Compound 67, 6-benzyl-N-(cycloheptylmethyl)-2,6,7,8-tetrahydro-1,2,3,5,6-pentaazaacenaphthylen-4-amine], the inhibition at 10 µM is less than 50% under setting [1]; less than 50% under setting [2]; less than 50% under setting [3]; 50 to 79% under setting [4]; less than 50% under setting [5]; 50 to 79% under setting [6].

Take `COc1ccc(CN2CCc3n[nH]c4nc(NC5Cc6ccccc6C5)nc2c34)cc1` [Compound 106, N-(2,3-dihydro-1H-inden-2-yl)-6-(4-methoxybenzyl)-2,6,7,8-tetrahydro-1,2,3,5,6-pentaazaacenaphthylen-4-amine]: the inhibition at 10 µM was more than 79% under setting [1]; more than 79% under setting [2]; less than 50% under setting [3]; 50 to 79% under setting [4]; less than 50% under setting [5]; 50 to 79% under setting [6].

`CCOC(=O)N1CCN(c2nc3c4c(n[nH]c4n2)CCN3Cc2ccccc2)CC1` [Compound 89, ethyl 4-(6-benzyl-2,6,7,8-tetrahydro-1,2,3,5,6-pentaazaacenaphthylen-4-yl)piperazine-1-carboxylate]: the inhibition at 10 µM under setting [1] is less than 50%; the inhibition at 10 µM under setting [2] is less than 50%; the inhibition at 10 µM under setting [3] was more than 79%; the inhibition at 10 µM under setting [4] was less than 50%; the inhibition at 10 µM under setting [5] is more than 79%; the inhibition at 10 µM under setting [6] was less than 50%.
